Measurements published in US6737383B1, “Herbicidal oxadiazolidines” (priority 1999, dated 2004).

How the values were obtained:
winter wheat [1] = assay: Test E winter wheat; type: in vivo, Triticum aestivum; details: Postemergence; for Wheat (winter) plant response rating: Rate 250 g/ha
How it was run: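 Greenhouse test: for postemergence, foliar application at 1- to 4-leaf stage; compound in non-phytotoxic solvent with surfactant. Rating is visual, relative to untreated controls, about 21 to 28 days after treatment.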

blackgrass = assay: Test E blackgrass; type: in vivo, Alopecurus myosuroides; details: Preemergence; for Blackgrass plant response rating (0 to 100 scale): Rate 250 g/ha
green foxtail = assay: Test E green foxtail; type: in vivo, Setaria viridis; details: Preemergence; for Green foxtail plant response rating (0 to 100 scale): Rate 250 g/ha
winter wheat [2] = assay: Test E winter wheat; type: in vivo, Triticum aestivum; details: Preemergence; for Wheat (winter) plant response rating (0 to 100 scale): Rate 250 g/ha
duck salad = assay: Test B flood test duck salad; type: in vivo, Heteranthera limosa
How it was run: (§1)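 Flood test on plants grown to the 2-leaf stage; treated plants kept in greenhouse twelve to sixteen days, then visually rated against controls on a 0 (no effect) to 10 (complete control) scale.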

giant foxtail = assay: Test B pre/postemergence giant foxtail; type: in vivo, Setaria faberii
How it was run: (§2)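 Response is a visual 0-to-10 score relative to untreated plants, where 0 means no effect and 10 means complete control, taken twelve to sixteen days after application. Treatments went onto soil at planting and onto foliage of 1- to 4-leaf plants, using a surfactant-containing non-phytotoxic solvent.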

Italian ryegrass = assay: Test E Italian ryegrass; type: in vivo, Lolium multiflorum; details: Preemergence; for I. Ryegrass plant response rating (0 to 100 scale): Rate 250 g/ha
rice = assay: Test B flood test rice; type: in vivo, Oryza sativa
How it was run: as §1

wild oat = assay: Test E wild oat; type: in vivo, Avena fatua; details: Preemergence; for Wild oat plant response rating (0 to 100 scale): Rate 250 g/ha
winter barley = assay: Test E winter barley; type: in vivo, Hordeum vulgare; details: Preemergence; for Barley (winter) plant response rating (0 to 100 scale): Rate 250 g/ha
morningglory = assay: Test B pre/postemergence morningglory; type: in vivo, Ipomoea hederacea
How it was run: as §2

[3] = Rate 31 g/ha, 0 to 100 scale, 0 no effect, 100 complete control
[4] = Rate 125 g/ha, 0 to 100 scale, 0 is no effect, 100 is complete control
[5] = 0 to 100 scale where 0 is no effect and 100 is complete control
[6] = Rate 62 g/ha, 0 to 100 scale, 0 no effect, 100 complete control
[7] = Rate 125 g/ha, 0 to 100 scale (0 no effect, 100 complete control)
[8] = Rate 16 g/ha, head printed Pre-emergence (flood test species), scale 0 to 10, 0 no effect, 10 complete control
[9] = Rate 31 g/ha, Pre-emergence section (flood test species), scale 0 to 10
[10] = Rate 62 g/ha, headed Pre-emergence (flood test species), scale 0 to 10 (0 no effect, 10 complete control)
[11] = Rate 125 g/ha, Pre-emergence, flood test species, scale 0 to 10 where 0 is no effect and 10 is complete control
[12] = Preemergence, Rate 31 g/ha, visual rating, scale 0 to 10 (0 no effect, 10 complete control)
[13] = Preemergence, Rate 62 g/ha, scale of 0 to 10 where 0 is no effect and 10 is complete control
[14] = Rate 16 g/ha, Postemergence, scale 0 to 10, 0 no effect, 10 complete control
[15] = Rate 16 g/ha, Preemergence, scale 0 to 10, 0 no effect, 10 complete control
[16] = Rate 31 g/ha, Postemergence, scale 0 to 10
[17] = Rate 62 g/ha, Postemergence, scale 0 to 10 (0 no effect, 10 complete control)
[18] = Rate 125 g/ha, Postemergence, scale of 0 to 10 where 0 is no effect and 10 is complete control
[19] = Rate 125 g/ha, Preemergence, scale of 0 to 10 where 0 is no effect and 10 is complete control
[20] = Rate 500 g/ha, 0 to 100 scale, 0 is no effect, 100 is complete control
[21] = Rate 500 g/ha, 0 to 100 scale where 0 is no effect and 100 is complete control
[22] = Rate 250 g/ha, Pre-emergence, flood-test species, scale 0 to 10, 0 is no effect, 10 is complete control
[23] = Rate 500 g/ha, Pre-emergence, flood test species, scale 0 to 10 (0 no effect, 10 complete control)
[24] = Preemergence, Rate 250 g/ha, scale of 0 to 10 where 0 is no effect and 10 is complete control
[25] = Preemergence, Rate 500 g/ha, scale of 0 to 10 where 0 is no effect and 10 is complete control
[26] = Rate 62 g/ha, Postemergence, scale of 0 to 10 where 0 is no effect and 10 is complete control
[27] = Rate 500 g/ha, Postemergence, scale 0 to 10, 0 no effect, 10 complete control
[28] = Rate 1000 g/ha, 0 to 100 scale, 0 no effect, 100 complete control
[29] = Rate 500 g/ha, 0 to 100 scale (0 no effect, 100 complete control)
[30] = Rate 250 g/ha, Postemergence, scale of 0 to 10 where 0 is no effect and 10 is complete control

Structure (SMILES): CC(C)N(C(=O)n1oc(=O)n(CCCF)c1=O)c1ccc(F)cc1 [Compound 287]
- Plant response rating, Wheat (winter) (winter wheat [1]; [3]): 30
- Plant response rating, Wheat (winter) (winter wheat [1]; Rate 62 g/ha, 0 to 100 scale): 30
- Plant response rating, Wheat (winter) (winter wheat [1]; [4]): 40
- Wheat (winter) plant response rating (winter wheat [1]; [5]): 50
- Plant response rating, Blackgrass (blackgrass; [3]): 30
- Plant response rating, Blackgrass (blackgrass; [6]): 30
- Plant response rating, Blackgrass (blackgrass; [7]): 50
- Blackgrass plant response rating (0 to 100 scale) (blackgrass): 60
- Plant response rating, Green foxtail (green foxtail; [3]): 30
- Plant response rating, Green foxtail (green foxtail; [6]): 60
- Plant response rating, Green foxtail (green foxtail; [7]): 60
- Green foxtail plant response rating (0 to 100 scale) (green foxtail): 90
- Plant response rating, Wheat (winter) (winter wheat [2]; [3]): 40
- Plant response rating, Wheat (winter) (winter wheat [2]; [6]): 30
- Plant response rating, Wheat (winter) (winter wheat [2]; [7]): 45
- Wheat (winter) plant response rating (0 to 100 scale) (winter wheat [2]): 50
- Ducksalad plant response rating (duck salad; [8]): 0
- Ducksalad plant response rating (duck salad; [9]): 0
- Ducksalad plant response rating (duck salad; [10]): 0
- Ducksalad plant response rating (duck salad; [11]): 0
- Giant foxtail plant response rating (giant foxtail; [12]): 9
- Giant foxtail plant response rating (giant foxtail; [13]): 10
- Giant foxtail plant response rating (giant foxtail; [14]): 0
- Giant foxtail plant response rating (giant foxtail; [15]): 8
- Giant foxtail plant response rating (giant foxtail; [16]): 2
- Giant foxtail plant response rating (giant foxtail; [17]): 7
- Giant foxtail plant response rating (giant foxtail; [18]): 8
- Giant foxtail plant response rating (giant foxtail; [19]): 10
- Plant response rating, I. Ryegrass (Italian ryegrass; [3]): 20
- Plant response rating, I. Ryegrass (Italian ryegrass; [6]): 50
- Plant response rating, I. Ryegrass (Italian ryegrass; [7]): 55
- I. Ryegrass plant response rating (0 to 100 scale) (Italian ryegrass): 60
- Rice plant response rating (rice; [8]): 0
- Rice plant response rating (rice; [9]): 0
- Rice plant response rating (rice; [10]): 0
- Rice plant response rating (rice; [11]): 0
- Plant response rating, Wild oat (wild oat; [3]): 0
- Plant response rating, Wild oat (wild oat; [6]): 30
- Plant response rating, Wild oat (wild oat; [7]): 70
- Wild oat plant response rating (0 to 100 scale) (wild oat): 60
- Plant response rating, Barley (winter) (winter barley; [3]): 30
- Plant response rating, Barley (winter) (winter barley; [6]): 20
- Plant response rating, Barley (winter) (winter barley; [7]): 30
- Barley (winter) plant response rating (0 to 100 scale) (winter barley): 35
- Morningglory plant response rating (morningglory; [12]): 0
- Morningglory plant response rating (morningglory; [13]): 0
- Morningglory plant response rating (morningglory; [14]): 2
- Morningglory plant response rating (morningglory; [15]): 0
- Morningglory plant response rating (morningglory; [16]): 2
- Morningglory plant response rating (morningglory; [17]): 2
- Morningglory plant response rating (morningglory; [18]): 2
- Morningglory plant response rating (morningglory; [19]): 0

Structure (SMILES): CC(C)N(C(=O)n1oc(=O)n(C2CC2)c1=O)c1ccc(Cl)cc1 [Compound 241]
- Plant response rating, Wheat (winter) (winter wheat [1]; [4]): 20
- Wheat (winter) plant response rating (winter wheat [1]; [5]): 60
- Plant response rating, Wheat (winter) (winter wheat [1]; [20]): 50
- Plant response rating, Blackgrass (blackgrass; [7]): 60
- Blackgrass plant response rating (0 to 100 scale) (blackgrass): 100
- Plant response rating, Blackgrass (blackgrass; [21]): 98
- Plant response rating, Green foxtail (green foxtail; [7]): 65
- Green foxtail plant response rating (0 to 100 scale) (green foxtail): 90
- Plant response rating, Green foxtail (green foxtail; [21]): 90
- Plant response rating, Wheat (winter) (winter wheat [2]; [7]): 40
- Wheat (winter) plant response rating (0 to 100 scale) (winter wheat [2]): 50
- Plant response rating, Wheat (winter) (winter wheat [2]; [21]): 60
- Ducksalad plant response rating (duck salad; [10]): 0
- Ducksalad plant response rating (duck salad; [11]): 0
- Ducksalad plant response rating (duck salad; [22]): 0
- Ducksalad plant response rating (duck salad; [23]): 0
- Giant foxtail plant response rating (giant foxtail; [13]): 10
- Giant foxtail plant response rating (giant foxtail; [24]): 10
- Plant response rating, Giant foxtail (giant foxtail; [25]): 10
- Giant foxtail plant response rating (giant foxtail; [26]): 2
- Giant foxtail plant response rating (giant foxtail; [19]): 10
- Plant response rating (0 to 10; 0 is no effect, 10 is complete control), Giant foxtail (giant foxtail; Rate 250 g/ha, Postemergence): 6
- Giant foxtail plant response rating (giant foxtail; [27]): 8
- Plant response rating, I. Ryegrass (Italian ryegrass; [7]): 60
- I. Ryegrass plant response rating (0 to 100 scale) (Italian ryegrass): 70
- Plant response rating, I. Ryegrass (Italian ryegrass; [21]): 100
- Rice plant response rating (rice; [10]): 0
- Rice plant response rating (rice; [11]): 0
- Rice plant response rating (rice; [22]): 0
- Rice plant response rating (rice; [23]): 0
- Plant response rating, Wild oat (wild oat; [7]): 50
- Wild oat plant response rating (0 to 100 scale) (wild oat): 60
- Plant response rating, Wild oat (wild oat; [21]): 55
- Plant response rating, Barley (winter) (winter barley; [7]): 40
- Barley (winter) plant response rating (0 to 100 scale) (winter barley): 50
- Plant response rating, Barley (winter) (winter barley; [21]): 60
- Morningglory plant response rating (morningglory; [13]): 0
- Morningglory plant response rating (morningglory; [24]): 3
- Plant response rating, Morningglory (morningglory; [25]): 5
- Morningglory plant response rating (morningglory; [26]): 3
- Morningglory plant response rating (morningglory; [19]): 0
- Plant response rating (0 to 10; 0 is no effect, 10 is complete control), Morningglory (morningglory; Rate 250 g/ha, Postemergence): 5
- Morningglory plant response rating (morningglory; [27]): 8

Structure (SMILES): CC(C)N(C(=O)n1oc(=O)n(C2CCCC2)c1=O)c1ccc(F)cc1F [Compound 284]
- Plant response rating, Wheat (winter) (winter wheat [1]; Rate 1000 g/ha, 0 to 100 scale where 0 is no effect and 100 is complete control): 85
- Wheat (winter) plant response rating (winter wheat [1]; [5]): 60
- Plant response rating, Wheat (winter) (winter wheat [1]; [20]): 20
- Blackgrass plant response rating (0 to 100 scale) (blackgrass): 65
- Plant response rating, Blackgrass (blackgrass; [28]): 70
- Green foxtail plant response rating (0 to 100 scale) (green foxtail): 100
- Plant response rating, Green foxtail (green foxtail; [29]): 100
- Plant response rating, Green foxtail (green foxtail; [28]): 100
- Wheat (winter) plant response rating (0 to 100 scale) (winter wheat [2]): 70
- Plant response rating, Wheat (winter) (winter wheat [2]; [29]): 70
- Plant response rating, Wheat (winter) (winter wheat [2]; [28]): 80
- Ducksalad plant response rating (duck salad; [10]): 0
- Ducksalad plant response rating (duck salad; [11]): 0
- Ducksalad plant response rating (duck salad; [22]): 0
- Ducksalad plant response rating (duck salad; [23]): 0
- Giant foxtail plant response rating (giant foxtail; [13]): 9
- Giant foxtail plant response rating (giant foxtail; [24]): 9
- Plant response rating, Giant foxtail (giant foxtail; [25]): 10
- Giant foxtail plant response rating (giant foxtail; [17]): 0
- Giant foxtail plant response rating (giant foxtail; [18]): 2
- Giant foxtail plant response rating (giant foxtail; [19]): 9
- Plant response rating, Giant foxtail (giant foxtail; [30]): 3
- I. Ryegrass plant response rating (0 to 100 scale) (Italian ryegrass): 85
- Plant response rating, I. Ryegrass (Italian ryegrass; [29]): 70
- Plant response rating, I. Ryegrass (Italian ryegrass; [28]): 85
- Rice plant response rating (rice; [10]): 0
- Rice plant response rating (rice; [11]): 0
- Rice plant response rating (rice; [22]): 0
- Rice plant response rating (rice; [23]): 0
- Wild oat plant response rating (0 to 100 scale) (wild oat): 70
- Plant response rating, Wild oat (wild oat; [29]): 60
- Plant response rating, Wild oat (wild oat; [28]): 70
- Barley (winter) plant response rating (0 to 100 scale) (winter barley): 50
- Plant response rating, Barley (winter) (winter barley; [29]): 30
- Plant response rating, Barley (winter) (winter barley; [28]): 60
- Morningglory plant response rating (morningglory; [13]): 0
- Morningglory plant response rating (morningglory; [24]): 1
- Plant response rating, Morningglory (morningglory; [25]): 2
- Morningglory plant response rating (morningglory; [17]): 7
- Morningglory plant response rating (morningglory; [18]): 7
- Morningglory plant response rating (morningglory; [19]): 1
- Plant response rating, Morningglory (morningglory; [30]): 7
